Source: patent US12350250B2, “Aggrelytes for treating ocular conditions” (The Regents of the University of Colorado, a Body Corporate, priority 2022, dated 2025)

How the values were obtained:
mouse lenses = assay: Stiffness and axial strain of ex vivo mouse lenses (Example 10); design: species or system mouse (C57BL/6J); conditions: 1 mM, 24 hours, 100 mg load
Procedure: (§1) In this example, the lenses were dissected from the eyes of mice (C57BL/6J, 5-8 months old, Jackson Laboratories, Stock No. 000664, n=4-5) by a posterior approach and incubated without (“Control”) or with Aggrelyte-2 or Aggrelyte-2C (1 mM) for 24 hours in serum-free and phenol-red-free MEM (297 mOsm) at 37° C. Lens stiffness was measured as previously described in Baradia, H. et al., (2010) Exp. Eye Res. 91, 300-307. Briefly, the lens was placed on a flat platform with the anterior side facing up, and a load was applied to the top of the lens at 100 mg increments for mouse lenses and at 250 mg increments for human lenses. The displacement in the lens axial diameter (in μm or mm) was measured using MATLAB software developed by Dr. Adrian Glasser, UK, and plotted against the load applied. The displacement at a specific load was used to determine differences in lens stiffness between the untreated control and aggrelyte-treated lenses.
(§2) Freshly obtained human lenses (42-68 years old, n=10-12) were incubated with or without Aggrelyte-2 or Aggrelyte-2C (1 mM) for a total of 72 h in phenol red-free MEM with a change in media containing freshly dissolved aggrelytes every 24 h. One lens from each donor pair was used as the control, and the other was treated with aggrelyte. After incubation, the lens stiffness was measured as described above. Axial strain was also calculated based on the following formula: […]

[1] = test system: acetyllysine (AcK)-bearing proteins in solubilized human lens WI proteins; assay: AcK-bearing proteins in solubilized human lens proteins (Western blot densitometry); assay type: biochemical; conditions: 500 μM, solubilized proteins of ten human lenses (65 to 75 years), vs Control
From the text: Chemiluminescence was detected using an Enhanced Chemiluminescence Detection Kit (Thermo Scientific). Then the membrane was stained with Ponceau-S to visualize the proteins and normalize the detected AcK-bearing protein to the total protein load via densitometry.

[2] = test system: AcK in solubilized WI protein of human lenses; assay: AcK in solubilized human lens proteins (LC-MS/MS); assay type: biochemical; conditions: 500 μM, 24 hours; for AcK level: solubilized WI protein, human lenses (55-67 years)
Procedure: Water-insoluble proteins were prepared from aged human lenses (55-67 years) as described in Example 3, and incubated with 0 or 500 μM Aggrelyte-2 or Aggrelyte-2C for 24 hours as described in Example 3. Solubilized WI protein fractions (0.5 mg/mL) and water soluble (WS) protein fractions (3 mg/mL from human lenses) were sequentially digested with enzymes as previously described (Nandi et al., 2019, Biochemistry, 58(9):1260-1274). The enzyme-digested samples were analyzed for AcK by LC-MS/MS using the standard addition method as previously described (id.) The AcK levels were calculated based on the protein input in the enzymatic digestions.

γ-crystallin (γC) = assay: Crystallin levels in solubilized human lens proteins (Western blot), γC; assay type: biochemical; conditions: 500 μM, solubilized proteins of three human lenses
Procedure: (§3) The contents of crystalline proteins [αA-crystallin (αAC), αB-crystallin (αBC), β-crystallin (βC), and γ-crystallin (γC)] in the solubilized proteins of three human lenses treated with either Aggrelyte-2 or Aggrelyte-2C (500 μM) from Example 4 were determined by Western blot analysis as described for Example 5. Membranes were incubated with antibodies against αAC (1:14,000 dilution; Enzo Life Sciences, Catalog #ADI-SPA-221D), αBC (1:700,000 dilution; University of Iowa), βC (1:14,000 dilution; Santa Cruz Biotechnology, Catalog #sc-22745), and γC (1:7,000 dilution; Santa Cruz Biotechnology, Catalog #sc-22746). The secondary antibodies were HRP-conjugated anti-mouse IgG for αBC and HRP-conjugated […] (Cell Signaling Technology, Catalog #7074S) for αAC, βC, and γC. According to the supplier, the […] detects mostly βB1-crystallin and, to a lesser extent, βA1/3, βA2, βA4, βB2, and βB3-crystallin. The γC antibody reacts with γA, γB, γC, γD, γE, and γF-crystallin.

β-crystallin (βC) = assay: Crystallin levels in solubilized human lens proteins (Western blot), βC; assay type: biochemical; conditions: 500 μM, solubilized proteins of three human lenses
Procedure: as §3

[3] = test system: protein thiols of solubilized human lens WI protein; assay: Protein thiol content in solubilized protein from WI protein of aged lenses; assay type: biochemical; conditions: 500 μM aggrelyte, lenses 58 to 69 years old; for thiol content: 10 μg protein, GSH standard
Procedure: Protein thiol content in the solubilized protein from WI protein from aged lenses (58 to 69 years old) was evaluated. Immediately after treatment with aggrelytes as described in the foregoing examples, 0.15 mL samples were filtered through 10 kDa cutoff centrifugal filters at 4° C. Centrifugal filtration was repeated twice by adding 0.4 mL of 50 mM N2-bubbled sodium phosphate buffer to the retentate each time. Ten micrograms of protein from the final retentate was used for thiol content estimation using a Thiol Quantification Assay Kit (Abcam, Cambridge, MA) using reduced GSH as the standard.

human (60-62 years) lens = assay: Human lens transparency (separate study); conditions: data not shown
From the text: The reduction in stiffness was similar at 400- and 500-mg loads (FIGS. 21C and 21D, respectively).

human lenses [4] = assay: AcK-bearing proteins in WS cortical and nuclear fractions of treated human lenses (Western blot); conditions: 1 mM, 72 h, vs untreated controls
Procedure: For Western blotting, 10-20 μg of protein from each lens sample was used and each sample was separately processed three times and analyzed.

[5] = Stability of aggrelytes under physiological conditions (1H-NMR); assay type: physicochemical; conditions: 50 mM phosphate buffer, pH 7.4, 37° C.; for degraded during 3-day incubation: 3 days; for degraded during 7-day incubation: 7 days
Procedure: Aggrelyte-2 (N,S-diacetyl-L-cysteine methyl ester; Astatech Catalog #D95910) and Aggrelyte-2C (N-acetyl cysteine methyl ester; Sigma Aldrich Catalog #01042) (2 mg each) were incubated in 1 mL of 50 mM phosphate buffer, pH 7.4, at 37° C. Aliquots were withdrawn immediately after incubation (Day 0) and after 1, 3, and 7 days. Stability of the aggrelytes was tested using ^1H-NMR (in DMSO-d6) spectroscopy. The NMR peak integration values for the S-acetyl or N-acetyl cysteine methyl proton were compared with the cysteine methine proton.

human lenses [6] = assay: Stiffness and axial strain of ex vivo human lenses (Example 10); conditions: 1 mM, 72 h; for lens stiffness (displacement) vs untreated controls: human lenses (42-68 years), loads of 500 mg and 1000 mg; for axial strain vs controls: human lenses, 500 mg and 1000 mg loads
Procedure: as §1, §2

Structure (SMILES)	axial strain vs controls (mouse lenses; mouse lenses)	amount of AcK-bearing proteins (Western blot densitometry) [1]	AcK level [2]	levels of γC vs Controls (γ-crystallin (γC))	levels of βC vs Controls (β-crystallin (βC))	thiol content [3] [µM]	thiol content, fold higher than in the untreated controls [3] [fold]	thiol content, fold increase over Aggrelyte-2-treated samples [3] [fold]	lens transparency compared to vehicle-treated lenses (human (60-62 years) lens)	AcK levels, cortical protein fraction (Western blot) (human lenses [4])	AcK levels, nuclear protein fraction (Western blot) (human lenses [4])	degraded during 3-day incubation [5] [%]	degraded during 7-day incubation [5] [%]	lens stiffness (displacement) vs untreated controls (human lenses [6])	axial strain vs controls (human lenses [6])	lens stiffness vs untreated control lenses (mouse lenses; 6-month-old mouse lenses)	displacement, % greater than that by Aggrelyte-2C (mouse lenses; mouse lenses, not significantly greater) [%]	AcK levels, fold increase compared to Aggrelyte-2C-treated samples ([2]; combined mean values) [fold]	AcK levels, fold increase compared to untreated controls ([2]; combined mean values) [fold]
COC(=O)[C@H](CS)NC(C)=O [Aggrelyte-2C, N-acetyl-L-cysteine methyl ester]	did not have a significant effect	did not increase the AcK levels	0.6-0.9 nmol/mg protein	no effect	no effect	1.1 to 1.6	4.9	2.6	did not reduce or otherwise change	not statistically different	not statistically different	21	37	did not demonstrate significant effects on displacement	did not have a significant effect	–	–	–	–
COC(=O)[C@H](CSC(C)=O)NC(C)=O [Aggrelyte-2, N,S-diacetyl-L-cysteine methyl ester]	significantly (p<0.05) reduced the axial strain	significantly (p<0.001) increased	1.5-2.1 nmol/mg protein	slightly but not significantly higher	slightly but not significantly higher	0.3 to 0.7	1.9	–	did not reduce or otherwise change	significantly increases	significantly increases	30	42	significantly (p<0.01) reduced lens stiffness	significantly (p<0.01) reduced the axial strain	significantly (p<0.05) reduced the stiffness	8.7	2.4	1.9
